Results as given in patent US7364866B2, “Drosophila G protein coupled receptors, nucleic acids, and methods related to the same” (Pharmacia & Upjohn Company, priority 1999, dated 2008).
Read-outs that look alike come from different tables or passages of the source. Residues, ends and D or L forms follow the SMILES beside them.

Key:
[1] = tested on: CHO cells stably transfected with a DmGPCR expression vector; assay: Intracellular calcium measurement using FLIPR, positive controls; assay type: cell-based, Chinese hamster; conditions: positive controls: A23187 10 μM, ATP 4 μM
Experimental: (§1) Changes in intracellular calcium levels are another recognized indicator of G protein-coupled receptor activity, and such assays can be employed to screen for modulators of DmGPCR activity. For example, CHO cells stably transfected with a DmGPCR expression vector are plated at a density of 4×10^4 cells/well in Packard black-walled, 96-well plates specially designed to discriminate fluorescence signals emanating from the various wells on the plate. The cells are incubated for 60 minutes at 37° C. in modified Dulbecco's PBS (D-PBS) containing 36 mg/L pyruvate and 1 g/L glucose and one of four calcium indicator dyes (Fluo-3™ AM, Fluo-4™ AM, Calcium Green™-1 AM, or Oregon Green™ 488 BAPTA-1 AM), each at a concentration of 4 μM. […]
(§2) A calcium response is initiated by the addition of one or more candidate receptor agonist compounds, calcium ionophore A23187 (10 μM; positive control), or ATP (4 μM; positive control). Fluorescence is measured by Molecular Device's FLIPR with an argon laser (excitation at 488 nm). […] Basal fluorescence of cells was measured for 20 seconds prior to addition of candidate agonist, ATP, or A23187, and the basal fluorescence level was subtracted from the response signal. The calcium signal is measured for approximately 200 seconds, taking readings every two seconds. […]

[2] = tested on: DmGPCR1; assay: Ca+2 mobilization assay (FLIPR), transfected CHO cells; assay type: cell-based, Drosophila melanogaster
Experimental: as §1, §2

[3] = target: DmGPCR8; assay: [35S]GTPγS binding assay, dose response; assay type: biochemical, Drosophila melanogaster; conditions: DmGPCR8 in CHO-10001A cells; given in words
Experimental: The transfected cells were washed once with ice-cold Dulbecco's phosphate buffered saline (PBS), 5 ml per 10 cm plate, and scraped into 5 ml of the same buffer. Cell suspensions from multiple plates were combined and centrifuged at 500×g for 10 min at 4° C. The cell pellet was reconstituted in ice-cold TEE (25 mM TRIS, 5 mM EGTA, 5 mM EDTA). Convenient aliquots were snap-frozen in liquid nitrogen and stored at −70° C. After thawing, the cells were homogenized and centrifuged at 4° C., 500×g for 5 minutes to pellet nuclei and unbroken cells. The supernatant was centrifuged at 47,000×g for 30 minutes at 4° C. […] Membrane protein concentration was determined using the BCA Protein Assay Reagent from Pierce (Rockford, Ill.) and BSA as standard. […]
Ligand-induced stimulation of [^35S]GTPγS binding was expressed as fold increase over the basal activity with no ligand added. Each treatment was run either in triplicate, or, on occasion, in duplicate, and the binding (cpm) was calculated as means +/− standard deviations. Dose-response curves for the receptor/ligand systems were analyzed using a non-linear least square SAS model, y=Bmax X/(Kd+X). Other dose-response curves were analyzed using Prism (GraphPad Software, Inc. San Diego, Calif.) and the following equation y=Bottom+(Top−Bottom)/(1+10^LogEC50-X). […]

[4] = tested on: DmGPCR8; assay: direct calcium mobilization assay (FLIPR); assay type: cell-based, Drosophila melanogaster; conditions: DmGPCR8 without chimeric G-protein
Experimental: as §1, §2

[5] = tested on: DmGPCR8 and chimeric G-proteins; assay: calcium mobilization (FLIPR) in CHO-10001A cells co-transfected with chimeric G-proteins; assay type: cell-based, Drosophila melanogaster; conditions: for EC50: read-out: EC50, calcium releasing activity
Experimental: Changes in intracellular calcium levels are another recognized indicator of G protein-coupled receptor activity, and such assays can be employed to screen for modulators of DmGPCR activity. For example, CHO cells stably transfected with a DmGPCR expression vector are plated at a density of 4×10^4 cells/well in Packard black-walled, 96-well plates specially designed to discriminate fluorescence signals emanating from the various wells on the plate. The cells are incubated for 60 minutes at 37° C. in modified Dulbecco's PBS (D-PBS) containing 36 mg/L pyruvate and 1 g/L glucose and one of four calcium indicator dyes (Fluo-3™ AM, Fluo-4™ AM, Calcium Green™-1 AM, or Oregon Green™ 488 BAPTA-1 AM), each at a concentration of 4 μM. Plates are washed once with modified D-PBS and incubated for 10 minutes at 37° C. to remove residual dye from the cellular membrane. In addition, a series of washes with modified D-PBS is performed immediately prior to activation of the calcium response.
A calcium response is initiated by the addition of one or more candidate receptor agonist compounds, calcium ionophore A23187 (10 μM; positive control), or ATP (4 μM; positive control). Fluorescence is measured by Molecular Device's FLIPR with an argon laser (excitation at 488 nm). (See, e.g., Kuntzweiler et al., Drug Dev. Res., 1998, 44(1), 14-20). The F-stop for the detector camera was set at 2.5, and the length of exposure was 0.4 milliseconds. Basal fluorescence of cells was measured for 20 seconds prior to addition of candidate agonist, ATP, or A23187, and the basal fluorescence level was subtracted from the response signal. The calcium signal is measured for approximately 200 seconds, taking readings every two seconds. Calcium ionophore A23187 and ATP increase the calcium signal 200% above baseline levels. In general, activated GPCRs increase the calcium signal approximately 10-15% above baseline signal.
Originally, we have chosen the GTPγS assay as a functional assay because agonist-driven stimulation of GTPγS reflects early events in the DmGPCR activation cascade, regardless of further activation pathways of various down-stream signaling events. This appears especially useful for the assessment of possible activation of orphan DmGPCRs with unknown functions and unknown signaling pathways. […] Since the GTPγS assay is known to poorly recognize GPCRs coupled to the Gq class of G-proteins, a Ca^+2 mobilization assay based on a FLIPR readout was used as well to evaluate Gq-coupled orphan GPCRs in CHO cells transiently transfected with DNA encoding Drosophila GPCRs.

[6] = tested on: muscle contraction; conditions: cited from earlier work
[7] = target: T1, DmGPCR5 (Drosophila melanogaster, UniProt P30975, L70Q); assay: biochemical; design: expressed in transfected cells; host or cells: CHO-1000A (so in the source), transient; conditions: for maximal stimulation of GTPγS binding above basal level: dose-response
T1 sequence (P30975 whole entry L70Q): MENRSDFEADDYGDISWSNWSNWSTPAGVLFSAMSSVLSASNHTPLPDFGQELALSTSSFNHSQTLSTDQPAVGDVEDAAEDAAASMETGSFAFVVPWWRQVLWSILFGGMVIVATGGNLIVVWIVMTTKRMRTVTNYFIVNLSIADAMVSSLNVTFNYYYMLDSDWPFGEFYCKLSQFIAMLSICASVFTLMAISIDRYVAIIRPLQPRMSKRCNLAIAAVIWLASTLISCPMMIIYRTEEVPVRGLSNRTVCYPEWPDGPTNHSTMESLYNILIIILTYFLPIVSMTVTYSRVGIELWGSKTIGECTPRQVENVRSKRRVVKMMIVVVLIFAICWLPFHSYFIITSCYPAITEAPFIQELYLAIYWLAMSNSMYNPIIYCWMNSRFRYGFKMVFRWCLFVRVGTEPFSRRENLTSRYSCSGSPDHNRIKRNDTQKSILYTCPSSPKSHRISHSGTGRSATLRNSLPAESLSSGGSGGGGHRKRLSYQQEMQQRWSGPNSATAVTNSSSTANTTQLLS
Experimental: The transfected cells were washed once with ice-cold Dulbecco's phosphate buffered saline (PBS), 5 ml per 10 cm plate, and scraped into 5 ml of the same buffer. Cell suspensions from multiple plates were combined and centrifuged at 500×g for 10 min at 4° C. The cell pellet was reconstituted in ice-cold TEE (25 mM TRIS, 5 mM EGTA, 5 mM EDTA). Convenient aliquots were snap-frozen in liquid nitrogen and stored at −70° C. After thawing, the cells were homogenized and centrifuged at 4° C., 500×g for 5 minutes to pellet nuclei and unbroken cells. The supernatant was centrifuged at 47,000×g for 30 minutes at 4° C. The membrane pellet was washed once with TEE, resuspended in 20 mM HEPES, pH 7.4, 100 mM NaCl, 10 mM MgCl2, 1 mM EDTA (assay buffer), aliquoted and frozen in liquid nitrogen. Membrane aliquots were stored at −70° C. Membrane protein concentration was determined using the BCA Protein Assay Reagent from Pierce (Rockford, Ill.) and BSA as standard.
Initially, reaction mixtures were prepared in 96-well polypropylene plates (Nunc). In each well, peptide aqueous solution (20 μl, 10×), or water controls (20 μl), 18.2 μM GDP in assay buffer (0.11 ml, 10 μM final), and membranes suspended in assay buffer (50 μl, 10 μg membrane protein) were mixed and placed on ice. […] Then the membranes were washed 3 times with 0.25 ml ice-cold wash buffer/well (10 mM HEPES, 10 mM MgCl2, pH 7.4) and vacuum filtered. […] Each treatment was carried out in triplicates.
Ligand-induced stimulation of [^35S]GTPγS binding was expressed as fold increase over the basal activity with no ligand added. Each treatment was run either in triplicate, or, on occasion, in duplicate, and the binding (cpm) was calculated as means +/− standard deviations. Dose-response curves for the receptor/ligand systems were analyzed using a non-linear least square SAS model, y=Bmax X/(Kd+X). Other dose-response curves were analyzed using Prism (GraphPad Software, Inc. San Diego, Calif.) and the following equation y=Bottom+(Top−Bottom)/(1+10^LogEC50-X).
Originally, we have chosen the GTPγS assay as a functional assay because agonist-driven stimulation of GTPγS reflects early events in the DmGPCR activation cascade, regardless of further activation pathways of various down-stream signaling events. This appears especially useful for the assessment of possible activation of orphan DmGPCRs with unknown functions and unknown signaling pathways. The GTPγS assay was carried out with membranes prepared from CHO cells transiently transfected with DNA encoding Drosophila GPCRs using a 96-well MultiScreen G/FB filter plates and a MultiScreen vacuum manifold (Millipore) for filtration. Since the GTPγS assay is known to poorly recognize GPCRs coupled to the Gq class of G-proteins, a Ca^+2 mobilization assay based on a FLIPR readout was used as well to evaluate Gq-coupled orphan GPCRs in CHO cells transiently transfected with DNA encoding Drosophila GPCRs.

[8] = target: T1, DmGPCR5; assay: cell-based
Text: The photoprotein luciferase provides another useful tool for assaying for modulators of DmGPCR activity. Cells (e.g., CHO cells or COS7 cells) are transiently co-transfected with both a DmGPCR expression construct (e.g., DmGPCR in pzeoSV2) and a reporter construct which includes a gene for the luciferase protein downstream from a transcription factor binding site, such as the cAMP-response element (CRE), AP-1, or NF-kappa B. Agonist binding to receptors coupled to the Gs subtype of G proteins leads to increases in cAMP, thereby activating the CRE transcription factor and resulting in expression of the luciferase gene. […] Luciferase activity may be quantitatively measured using, e.g., luciferase assay reagents that are commercially available from Promega (Madison, Wis.).
In one exemplary assay, CHO cells are plated in 24-well culture dishes at a density of 100,000 cells/well one day prior to transfection and cultured at 37° C. in MEM (Gibco/BRL) supplemented with 10% fetal bovine serum, 2 mM glutamine, 10 μg/ml penicillin, and 10 μg/ml streptomycin. […] After incubation for 15 minutes at room temperature, 15 μl of the lysate is mixed with 50 μl of substrate solution (Promega) in an opaque-white, 96-well plate, and the luminescence is read immediately on a Wallace model 1450 MicroBeta scintillation and luminescence counter (Wallace Instruments, Gaithersburg, Md.). […]

CNc1ccc2oc(C[C@H]3O[C@@]4(CC[C@H]3C)O[C@H]([C@H](C)C(=O)c3ccc[nH]3)[C@H](C)C[C@H]4C)nc2c1C(=O)O [A23187]
increase of the calcium signal above baseline levels [1]: 200%

CC(C)C[C@H](NC(=O)[C@H](CCCNC(=N)N)NC(=O)[C@H](CC(C)C)NC(=O)[C@H](CCC(N)=O)NC(=O)[C@@H]1CCCN1C(=O)CNC(=O)[C@H](CCCNC(=N)N)NC(=O)[C@H](C)N)C(=O)N[C@@H](CCCNC(=N)N)C(=O)N[C@@H](Cc1ccccc1)C(N)=O [ARGPQLRLRF-NH2] (H-ARGPQLRLRF-NH2; N-terminus assumed)
EC50 [2]: 100 to 200 nM

Nc1ncnc2c1ncn2[C@@H]1O[C@H](COP(=O)(O)OP(=O)(O)OP(=O)(O)O)[C@@H](O)[C@H]1O [ATP]
increase of the calcium signal above baseline levels [1]: 200%

CC[C@H](C)[C@@H]1NC(=O)[C@@H]2CCCN2C(=O)[C@H](CC(N)=O)NC(=O)[C@H](Cc2ccccc2)NC(=O)[C@H](Cc2ccc(O)cc2)NC(=O)[C@@H](NC(=O)[C@H](CCC(N)=O)NC(=O)[C@H](CCCNC(=N)N)NC(=O)[C@H](Cc2ccc(O)cc2)NC(=O)[C@H](CCCNC(=N)N)NC(=O)[C@@H](NC(=O)[C@@H]2CCC(=O)N2)C(C)C)CSSC[C@@H](C(=O)N[C@@H](Cc2ccccc2)C(=O)O)NC(=O)[C@H](CO)NC1=O [DST-C, pGlu-Val-Arg-Tyr-Gln-Cys-Tyr-Phe-Asn-Pro-Ile-Ser-Cys-Phe-OH]
EC50, GTPγS-binding responses [3]: low nanomolar range
activity in direct calcium mobilization assay (FLIPR) [4]: did not show any activity
EC50 ([5]; co-transfected with DmGPCR8 and Gqi5): ~30 nM
EC50 ([5]; co-transfected with DmGPCR8 and Gqo5): ~30 nM
calcium mobilization ([5]; co-transfected with DmGPCR8 and Gqs5): no calcium mobilization was observed
EC50 ([5]; co-transfected with DmGPCR8 and Gqz5): 244 nM
inhibition of muscle contraction [6]: potent and prolonged inhibition

CC[C@H](C)[C@H](NC(=O)[C@H](Cc1ccccc1)NC(=O)[C@H](CO)NC(=O)[C@H](CO)NC(=O)[C@@H](NC(=O)[C@@H]1CCCN1C(=O)[C@H](C)N)[C@@H](C)O)C(=O)NCC(=O)N[C@@H](CCSC)C(=O)N[C@@H](CCCNC(=N)N)C(N)=O [DTK-1, APTSSFIGMR-NH2] (H-APTSSFIGMR-NH2)
EC50 [7]: 250 to 500 nM

CC(C)C[C@H](NC(=O)CNC(=O)[C@H](Cc1ccc(O)cc1)NC(=O)[C@H](Cc1ccccc1)NC(=O)[C@H](C)NC(=O)[C@H](CC(C)C)NC(=O)[C@@H]1CCCN1C(=O)[C@H](C)N)C(=O)N[C@@H](CCCNC(=N)N)C(N)=O [DTK-2, APLAFYGLR-NH2] (H-APLAFYGLR-NH2)
EC50 [8]: 1060 nM
EC50, stimulation of GTPγS binding ([7]; DmGPCR5, given in words): low micromolar range

CSCC[C@H](NC(=O)CNC(=O)[C@@H](NC(=O)[C@H](Cc1ccccc1)NC(=O)CNC(=O)[C@@H](NC(=O)[C@@H]1CCCN1C(=O)[C@H](C)N)[C@@H](C)O)[C@@H](C)O)C(=O)N[C@@H](CCCNC(=N)N)C(N)=O [DTK-3, APTGFTGMR-NH2] (H-APTGFTGMR-NH2)
EC50 [7]: 250 to 500 nM

CSCC[C@H](NC(=O)CNC(=O)[C@H](CC(C)C)NC(=O)[C@H](Cc1ccccc1)NC(=O)CNC(=O)[C@H](CC(N)=O)NC(=O)[C@@H]1CCCN1C(=O)[C@H](C)N)C(=O)N[C@@H](CCCNC(=N)N)C(N)=O [DTK-5, APNGFLGMR-NH2] (H-APNGFLGMR-NH2)
EC50 [8]: 197 nM
EC50 [7]: 250 to 500 nM
maximal stimulation of GTPγS binding above basal level ([7]; DmGPCR5): ca. 1.5 fold

CSCC[C@H](NC(=O)CNC(=O)[C@H](Cc1ccc(O)cc1)NC(=O)[C@H](Cc1ccccc1)NC(=O)[C@H](C)NC(=O)[C@H](CC(C)C)NC(=O)[C@@H]1CCCN1C(=O)[C@H](C)N)C(=O)N[C@@H](CCCNC(=N)N)C(N)=O [Met8-DTK-2, APLAFYGMR-NH2] (H-APLAFYGMR-NH2)
maximal stimulation of GTPγS binding above basal level ([7]; DmGPCR5): ca. 1.5 fold
